Non-standard residues stand in square brackets, D forms with d. Residues, ends and D or L forms follow the SMILES beside them.
System: drug-resistant Mycobacterium tuberculosis
Conditions: 5 micrograms per ml

In the case of `CC(C)C[C@H](NC(=O)[C@H](CC(C)C)NC(=O)[C@@H](Cc1c[nH]c2ccccc12)NC(=O)[C@H](Cc1ccccc1)NC(=O)[C@@H](Cc1c[nH]c2ccccc12)NC(=O)[C@H](CCC(N)=O)NC(=O)[C@H](CCC(N)=O)NC(=O)[C@@H]1CCCN1C(=O)[C@H](CCCCN)NC(=O)[C@@H]1CCCN1C(=O)[C@@H](CCCNC(=N)N)NC(=O)[C@@H]1CCCN1C(=O)CNC(=O)[C@H](CC(C)C)NC(=O)[C@H](CC(C)C)NC(=O)[C@H](Cc1ccc(O)cc1)NC(=O)CNC(=O)[C@H](C)NC(=O)[C@H](CO)NC(=O)[C@H](CC(N)=O)NC(=O)[C@H](CC(C)C)NC(=O)[C@@H](NC(=O)[C@H](Cc1c[nH]c2ccccc12)NC(=O)CN)[C@@H](C)O)C(N)=O` [Spantide-I, Gly-Trp-Thr-Leu-Asn-Ser-Ala-Gly-Tyr-Leu-Leu-Gly-Pro-D-Arg-Pro-Lys-Pro-Gln-Gln-D-Trp-Phe-D-Trp-Leu-Leu-NH2] (H-GWTLNSAGYLLGP[dR]PKPQQ[dW]F[dW]LL-NH2), the “% inhibition” value is reported as 100.0%.

From patent US20100204129A1, “USE OF A PEPTIDE AS A THERAPEUTIC AGENT” (priority 2008, published 2010)
